According to patent US10640748B2, “Oligodendroglial cell culturing methods and in methods for treating neurodegenerative disorders by using thyroid hormones or analogues” (NeuOrphan Pty Ltd, priority 2014, dated 2020):

Legend:
[1] = system: Pre-OLs from Nkx2.1-GFP+ sorted cultures at stage VI, day 21; test: MTT-based cytotoxicity assay under Bosutinib MCT8 blockade; assay type: cell-based, human; conditions: Bosutinib with 10 ng/mL DITPA, 48 hours
Experimental: Pre-OLs from Nkx2.1-GFP+ sorted cultures at stage VI, day 21 were treated with the pharmacological inhibitor of MCT8, bosutinib (LC Laboratories, B-1788, reconstituted in dimethyl sulfoxide, [DMSO]) at different concentrations (1 ng/mL, 10 ng/mL and 100 ng/mL) with co-administration of 10 ng/mL DITPA. An MTT assay and flow cytometry were then performed on the cells stained for DAPI after 48 hours of treatment, to analyze DAPI+ dead cells.

[2] = system: Nkx2.1-GFP+ sorted cells at stage VI; test: qRT-PCR gene expression in Nkx2.1-GFP+ sorted cells at stage VI treated with T3, DITPA or T3+DITPA; assay type: cell-based, human
Experimental: RNA was isolated from cells by using RNeasy Mini Kit (Qiagen) according to the manufacturer's instruction and treated with DNase-I to remove genomic DNA. The concentrations of total RNA were measured by Nanodrop ND-1000 spectrophotometer v3.7 (Thermo Specific) and complementary DNA (cDNA) was synthesized from 1 μg of total RNA using High-Capacity cDNA Reverse Transcription Kit (Applied Biosystems) according to the manufacturer's instructions. Real-Time Quantitative Reverse Transcription Polymerase Chain Reaction (qRT-PCR) was performed with 5-20 ng of cDNA template, 2× Taqman Gene expression master mix and 20× Taqman probes (Life technologies) on ABI Prism 7900HT Sequence detection system (Applied Biosystems). Gapdh served as an endogenous standard control. The qRT-PCR thermo-cycling reaction was 1 cycle at 50° C. for 2 minutes, 1 cycle at 95° C. for 10 minutes and 40 cycles of 95° C. for 15 seconds, then 60° C. for 1 minute. The threshold cycle (CT) value, which represents the cycle at which the first PCR product is detected, was measured in triplicate and normalized against the endogenous control, GAPDH, to determine the ΔCT value. Then the ΔCT values of GFP-positive cells were then standardized against the ΔCT values of undifferentiated hESCs, derived as relative mRNA expression (ΔΔCT).
Bar graphs illustrating the qRT-PCR analyses in FIG. 2, 3, S1-3 representing the log2 of the average fold-change in gene expression compared directly to the undifferentiated Stage I hESC or T3-treated cells at day 7 in FIG. 5 and S5.

[3] = system: rat RGCs and slc16a2 down-regulated OLs from Nkx2.1-GFP+ sorted cells; test: Co-culture myelination assay with slc16a2 down-regulated OLs; assay type: cell-based, rat; human; conditions: slc16a2 down-regulated OLs co-cultured with rat RGCs for 7 days
Excerpt: Retinae were dissected from P6 Sprague-Dawley rat pups (AEC #1121/2011/M). RGCs were purified according to the published immunopanning protocol (Deliyanti and Wilkinson-Berka, 2015; Watkins et al., 2008). Details of the RGC preparation are described in Supplemental Experimental Procedure. The RGC growth medium was changed every third day and cultures were maintained for 9 days. Pre-OLs from Nkx2.1-GFP+ cells at stage VI day 10, were FACS sorted according to O4 antibody labeling. O4+ sorted cells were then co-cultured with RGCs at a density of 20,000/well under 3 different conditions: T3 with 0.01% ethanol, 10 ng/mL DITPA, and 40 ng/mL T3 with DITPA in myelination medium (see Supplemental Experimental Procedure). […]
For quantification of myelination in vitro following knockdown of slc16a2, at least nine fields (×20 objective) were randomly selected and captured from each coverslip with a confocal microscope (Nikon A1 inverted). A myelination index (%) by mCherry+ cells (i.e. axons myelinated by mCherry+ cells) was calculated by: the number of mCherry+/MBP+ membrane, ensheathing the NF200+ axons/the total number of NF200+ axons. Furthermore, the viable ensheathing mCherry+/MBP+ OLs and mature mCherry+ OLs according to their morphology with multiple processes and membranous sheaths were counted and their % calculated.

[4] = cited from earlier work
[5] = compared to T3 treated cultures
[6] = differentiating cultures treated with DITPA

## O=C(O)CCc1cc(I)c(Oc2ccc(O)cc2)c(I)c1 [DITPA, 3,5-Diiodothyropropionic acid]
[1]
  survival rates (MTT assay): increased survival rates
[2]; [5]
  cdkn1b (p27) expression: up-regulated
  tp53 (p53) expression: up-regulated
[2]; compared with T3
  OL differentiation: promotes OL differentiation
[2]; compared with T3 treatment
  dio2 expression: no significant differences
  dio3 expression: no significant differences
  thrb expression: no significant differences
[2]; day 7, compared with T3
  slc16a2 (MCT8) expression: significant up-regulation
  slc16a10 (MCT10) expression: significant up-regulation
[2]; day 21 of treatment, versus T3 alone
  plp1 expression: substantial up-regulation
[2]; [6]
  mbp expression: up-regulation
  myt1 expression: up-regulation
  plp1 expression: up-regulation
[2]; following DITPA treatment
  olig1 expression: up-regulated
  olig2 expression: up-regulated
  sox10 expression: up-regulated
  up-regulation of slc16a10: ~14 fold
[2]; upon DITPA treatment
  bmp7 expression: down-regulation
  frzb expression (WNT antagonist): up-regulation
  jun expression: down-regulation
  sfrp1 expression (WNT antagonist): up-regulation
  sfrp2 expression (WNT antagonist): up-regulation
  tgfb3 expression: down-regulation
  tnfrsf2 (encodes DR6) expression: almost negligible up-regulation
  wnt5a expression: down-regulation
[3]
  mCherry+/MBP+ myelinating OLs and mCherry+/MBP+ myelin segments: found
[4]
  solubility in water and aqueous solutions: sparingly soluble
